Experimental findings from ChEMBL document CHEMBL4184104, “Identification of novel allosteric inhibitors of mutant isocitrate dehydrogenase 1 by cross docking-based virtual screening” (Bioorg Med Chem Lett, 2018) are described below.

Data set [1] relates to Isocitrate dehydrogenase [NADP] cytoplasmic (Homo sapiens), O75874 [R132H]. Put plainly: Inhibition of IDH1 R132H mutant (unknown origin) expressed in HEK293T cells assessed as D2-HG level at 10 uM after 72 hrs relative to control. The note with it: values are per cent of control. The class given is cell-based.
For data set [2] the test system is unchanged. The experiment in a line: Inhibition of IDH1 R132H mutant (unknown origin) expressed in HEK293T cells assessed as D2-HG level at 50 uM after 72 hrs relative to control. The class given is cell-based. The note with it: values are per cent of control.
In data set [3] the test system is Isocitrate dehydrogenase [NADP] cytoplasmic (Homo sapiens), O75874 [R132C]. Put plainly: Inhibition of IDH1 R132C mutant (unknown origin) expressed in HEK293T cells assessed as D2-HG level at 10 uM after 72 hrs relative to control. Format: cell-based. The following applies: values are per cent of control.
Data set [4] shares this test system. The experiment in a line: Inhibition of IDH1 R132C mutant (unknown origin) expressed in HEK293T cells assessed as D2-HG level at 50 uM after 72 hrs relative to control. The class given is cell-based. The note with it: values are per cent of control.
In another data set the test system is HEK-293T. Put plainly: (§1) Cytotoxicity against HEK293T cells harboring pMXs-IDH1wt-IRES-BsdRs assessed as cell survival at 50 uM after 72 hrs by CellTiterGlo assay relative to control. The class given is cell-based. The following applies: human, hek-293t, 72 h, 50 µM.
Data set [5] has as its target Isocitrate dehydrogenase [NADP] cytoplasmic (Homo sapiens, UniProt O75874, R132H). Put plainly: Inhibition of IDH1 R132H mutant (unknown origin) expressed in HEK293T cells assessed as reduction in D2-HG level after 30 mins by resazurin-based fluorescence assay. The class given is cell-based. (In general: The colour change of resazurin is a common sign of viable cells or microbes.)

For data set [6], the target named is Isocitrate dehydrogenase [NADP] cytoplasmic (Homo sapiens, UniProt O75874, R132C). Put plainly: Inhibition of IDH1 R132C mutant (unknown origin) expressed in HEK293T cells assessed as reduction in D2-HG level after 30 mins by resazurin-based fluorescence assay. The class given is cell-based.
Data set [7] is described as follows: Cytotoxicity against HEK293T cells harboring pMXs-IDH1wt-IRES-BsdRs assessed as cell survival at 10 uM after 72 hrs by CellTiterGlo assay relative to control. Format: cell-based, HEK-293T. The following applies: human, read-out: Survival. In general terms: ATP-based viability assays read luminescence as a measure of living cells.
The nature of data set [8]: as §1. Format: cell-based, HEK-293T. The following applies: human, HEK293T cells harboring pMXs-IDH1wt-IRES-BsdRs; read-out: Survival.
Data set [9] is described as follows: Effective permeability of the compound at 25 ug/ml after 18 hrs by BBB-PAMPA method. The note with it: read-out: Peff. The class given is ADME. In general terms: In PAMPA a lipid-coated filter parts donor from acceptor wells.

Sequence of Isocitrate dehydrogenase [NADP] cytoplasmic (Homo sapiens), O75874 [R132H] (O75874 whole entry R132H): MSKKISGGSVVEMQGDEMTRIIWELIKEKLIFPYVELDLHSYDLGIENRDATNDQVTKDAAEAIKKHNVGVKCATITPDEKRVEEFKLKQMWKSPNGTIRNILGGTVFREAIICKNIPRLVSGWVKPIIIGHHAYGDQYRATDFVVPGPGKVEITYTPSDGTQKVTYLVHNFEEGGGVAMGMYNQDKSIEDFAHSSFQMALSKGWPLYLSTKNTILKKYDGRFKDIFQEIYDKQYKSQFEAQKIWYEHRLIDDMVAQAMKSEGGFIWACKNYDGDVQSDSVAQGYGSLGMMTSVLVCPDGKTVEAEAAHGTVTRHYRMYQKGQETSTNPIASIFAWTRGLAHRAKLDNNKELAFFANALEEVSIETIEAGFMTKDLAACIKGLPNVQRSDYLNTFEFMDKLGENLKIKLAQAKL
Sequence of Isocitrate dehydrogenase [NADP] cytoplasmic (Homo sapiens), O75874 [R132C] (O75874 whole entry R132C): as the sequence (O75874 whole entry R132H) above, with H132C counted along it
Sequence of Isocitrate dehydrogenase [NADP] cytoplasmic (Homo sapiens, UniProt O75874, R132C) (O75874 2-414 R132C limits assumed): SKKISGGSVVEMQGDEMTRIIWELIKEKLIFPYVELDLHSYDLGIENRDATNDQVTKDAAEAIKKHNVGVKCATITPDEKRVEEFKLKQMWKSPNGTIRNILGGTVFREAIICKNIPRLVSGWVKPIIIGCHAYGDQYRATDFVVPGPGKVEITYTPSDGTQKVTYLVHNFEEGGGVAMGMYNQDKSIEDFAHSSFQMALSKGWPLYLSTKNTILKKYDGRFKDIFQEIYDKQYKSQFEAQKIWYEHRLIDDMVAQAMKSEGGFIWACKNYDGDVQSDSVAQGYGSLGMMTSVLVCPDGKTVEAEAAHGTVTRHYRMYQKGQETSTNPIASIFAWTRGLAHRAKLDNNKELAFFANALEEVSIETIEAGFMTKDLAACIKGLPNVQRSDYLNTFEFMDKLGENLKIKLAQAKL
Sequence of Isocitrate dehydrogenase [NADP] cytoplasmic (Homo sapiens, UniProt O75874, R132H) (O75874 2-414 R132H limits assumed): as the sequence (O75874 2-414 R132C limits assumed) above, with C131H counted along it

On to `COc1cccc(C(=O)Nc2cccc(OCC(=O)c3ccccc3)c2)c1`, for which the response, % of control in [1] came to 94.6%; in [2], 73.7%; in [3], 138%; in data set [4], 103%. Also, the Activity result with HEK-293T is “Non-Toxic”.
For the molecule `COC(=O)C1C(=O)C2=C(CC1C)Nc1ccccc1NC2c1c[nH]c2ccccc12` (configuration not stated), the IC50 in data set [5] and in [6] was 50 µM in each case.
In the case of `O=C(Nc1cccc(NC(=O)c2cccc(S(=O)(=O)N3CCCCC3)c2)c1)c1ccc(Br)cc1`, the response, % of control was 58.2% in data set [1], 59.5% in [2], 61.1% in data set [3] and 109% in data set [4]. Moreover, the Activity result in the data set on HEK-293T is “Non-Toxic”.
On to `COC(=O)c1ccccc1NC(=O)CNCn1cnc2ccccc21`, for which the response, % of control in [1] stood at 86.2%; in [2], 66.3%; in data set [3] it was 86.1%; in data set [4] it was 50.4%. The Activity entry in the data set with HEK-293T was “Non-Toxic”.
Regarding `COc1ccccc1NC(=O)c1c(NCc2cccnc2)sc2c1CC[C@H](C)C2`, the response, % of control in data set [1] stood at 96.7%; in [2], 32%; in data set [3], 123%; in data set [4], 34.7%. Moreover, the Activity result in the data set on HEK-293T is on record as “Non-Toxic”.
On to `CC(O)c1cccc(NC(=O)c2cnn3c2NC(c2ccccc2)CC3C(F)(F)F)c1` (configuration not stated), for which the response, % of control in data set [1] is 91.3%; in data set [2], 39.9%; in data set [3], 79.3%; in data set [4], 40.9%. Besides, the Activity entry with HEK-293T was “Non-Toxic”.
Take `CC(C)CCOc1cccc(C(=O)Nc2ccc(C(=O)Nc3cccc4ccccc34)cc2)c1`: the response, % of control in data set [1] is 54.9%; in data set [2], 49.5%; in data set [3] it was 48.4%; in data set [4] it was 43.6%. Moreover, the viability at 72 h, 10 µM in data set [7] was found to be 91.3%. For the same molecule, the viability at 72 h, 50 µM in [8] is 88.6%. In addition, in data set [9], the Papp at 18 h, 25 ug/ml was 8.15 ×10⁻⁶ cm/s.
Turning to `Cc1ccc(NC(=O)c2cc([N+](=O)[O-])cc3c2-c2ccc([N+](=O)[O-])cc2C3=O)cc1`, the response, % of control in [1] amounted to 103%; in data set [2], 72.5%; in [4], 52.7%. In addition, in the data set with HEK-293T, the Activity result is “Non-Toxic”.
As for `Cc1ccccc1C(C(=O)NC1CCCCC1)N(C(=O)Cn1ccnc1C)c1cccc(F)c1` (configuration not stated), the response, % of control in [1] amounted to 1.3%; in data set [2], 0.4%; in data set [3] it was 13.3%; in [4], 0.9%.
